Reference: patent US9708557B2, “Process for the treatment of liquefied hydrocarbon gas using 2-amino-2(hydroxymethyl) propane-1,3-diol compounds” (Dow Global Technologies LLC, priority 2012, dated 2017)

Legend:
[1] = Solubility of tested amine in heptane phase (gas chromatography, toluene internal standard); conditions: heptane 10 g, toluene 0.1 g, amine 2.5 g mixed at 20° C. for 1 hour, decanted 15 minutes; average of three injections
Protocol: A solution of heptane (10 g), toluene (0.1 g) and the tested amine (2.5 g) are mixed at 20° C. for 1 hour. The mixture is decanted for 15 minutes and the neat heptane phase is analyzed by gas chromatography using toluene as internal standard. The injection is repeated three times and peak areas of tested amine are averaged.

[2] = pKa by automated Mettler Toledo titration; conditions: 50 weight % aqueous amine solution

Row | SMILES | area counts (GC peak area of tested amine in neat heptane phase) [1] [area counts] | pKa [2]
1 | CN(C)C(CO)(CO)CO [DMTA, 2-dimethylamino-2-(hydroxymethyl)propane-1,3-diol] | 50 | 9.1
2 | NC(CO)(CO)CO [TA, 2-amino-2-(hydroxymethyl)propane-1,3-diol] | 0 | –
